Assay results as given in PubChem BioAssay AID256 (DTP/NCI, 2004).
Values joined by “and” are separate entries in the source; they are usually repeats but may differ in a detail not shown here. Identical values can stand only once. Toxic doses and inconclusive results are not listed. How the source made its calls: active means survival T/C of 150% or more; inactive means T/C below 125% in these data.

Tested on: CD2F1 mice, L1210 leukemia ip, survival T/C
Assay: NCI In Vivo Anticancer Drug Screen. Data for tumor model L1210 Leukemia (intraperitoneal) in CD2F1 (CDF1) mice
Conditions: higher = longer survival
Method in brief: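 Transplantable tumor in mice; compound-treated vs vehicle-treated groups. Read-out = treated/control ratio of the measured endpoint.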

[1] = endpoint: mean survival time, dose: 100.0 mg/kg/injection, schedule: Q01DX009 (ip), vehicle: saline
[2] = endpoint: mean survival time, dose: 200.0 mg/kg/injection, schedule: Q01DX009 (ip), vehicle: saline
[3] = endpoint: mean survival time, dose: 100.0 mg/kg/injection, schedule: Q01DX009 (ip), vehicle: saline with Tween-80
[4] = endpoint: mean survival time, dose: 200.0 mg/kg/injection, schedule: Q01DX009 (ip), vehicle: saline with Tween-80
[5] = endpoint: mean survival time, dose: 400.0 mg/kg/injection, schedule: Q01DX009 (ip), vehicle: saline with Tween-80
[6] = endpoint: mean survival time, dose: 100.0 mg/kg/injection, schedule: Q01DX001 (ip), vehicle: Klucel (hydroxypropylcellulose) (HPC)
[7] = endpoint: mean survival time, dose: 100.0 mg/kg/injection, schedule: Q01DX001 (ip), vehicle: saline with Tween-80
[8] = endpoint: mean survival time, dose: 200.0 mg/kg/injection, schedule: Q01DX001 (ip), vehicle: saline with Tween-80
[9] = endpoint: mean survival time, dose: 400.0 mg/kg/injection, schedule: Q01DX001 (ip), vehicle: saline with Tween-80
[10] = endpoint: mean survival time, dose: 100.0 mg/kg/injection, schedule: Q04DX003 (ip), vehicle: Klucel (hydroxypropylcellulose) (HPC)
[11] = endpoint: mean survival time, dose: 200.0 mg/kg/injection, schedule: Q04DX003 (ip), vehicle: Klucel (hydroxypropylcellulose) (HPC)
[12] = endpoint: mean survival time, dose: 400.0 mg/kg/injection, schedule: Q04DX003 (ip), vehicle: Klucel (hydroxypropylcellulose) (HPC)
[13] = endpoint: mean survival time, dose: 100.0 mg/kg/injection, schedule: Q04DX003 (ip), vehicle: saline with Tween-80
[14] = endpoint: mean survival time, dose: 200.0 mg/kg/injection, schedule: Q04DX003 (ip), vehicle: saline with Tween-80
[15] = endpoint: mean survival time, dose: 400.0 mg/kg/injection, schedule: Q04DX003 (ip), vehicle: saline with Tween-80
[16] = endpoint: mean survival time, dose: 100.0 mg/kg/injection, schedule: Q01DX001 (ip), vehicle: saline
[17] = endpoint: mean survival time, dose: 200.0 mg/kg/injection, schedule: Q01DX001 (ip), vehicle: saline
[18] = endpoint: mean survival time, dose: 400.0 mg/kg/injection, schedule: Q01DX001 (ip), vehicle: saline
[19] = endpoint: mean survival time, dose: 100.0 mg/kg/injection, schedule: Q01DX009 (ip), vehicle: saline sonified
[20] = endpoint: mean survival time, dose: 200.0 mg/kg/injection, schedule: Q01DX009 (ip), vehicle: saline sonified

Measured: T/C

CN1CCCC(OC(=O)N(C)C)C1 (stereo not given)
inactive: [1] 96 % of control | [2] 98 % of control

CCOC(N)=O
inactive: endpoint: mean survival time, dose: 125.0 mg/kg/injection, schedule: Q01DX009 (ip), vehicle: saline 98 % of control and 101 % of control | endpoint: mean survival time, dose: 250.0 mg/kg/injection, schedule: Q01DX009 (ip), vehicle: saline 104 % of control and 109 % of control | endpoint: mean survival time, dose: 500.0 mg/kg/injection, schedule: Q01DX009 (ip), vehicle: saline 116 % of control and 101 % of control | endpoint: mean survival time, dose: 1000.0 mg/kg/injection, schedule: Q01DX009 (ip), vehicle: saline 89 % of control and 105 % of control

NC(=O)CSc1ccc(Cl)cc1
inactive: [3] 113 % of control | [4] 94 % of control | [5] 102 % of control

Cc1ccc(NNC(N)=O)cc1
inactive: endpoint: mean survival time, dose: 25.0 mg/kg/injection, schedule: Q01DX001 (ip), vehicle: Klucel (hydroxypropylcellulose) (HPC) 104 % of control | endpoint: mean survival time, dose: 50.0 mg/kg/injection, schedule: Q01DX001 (ip), vehicle: Klucel (hydroxypropylcellulose) (HPC) 93 % of control | [6] 89 % of control

OCC(O)C(O)C(O)C(O)/C=N\Nc1ccccc1 (stereo not given)
inactive: [7] 100 % of control | [8] 100 % of control | [9] 95 % of control

COc1ccc(NC(=O)Nc2c(C)n(C)n(-c3ccccc3)c2=O)c(Cl)c1
inactive: endpoint: mean survival time, dose: 50.0 mg/kg/injection, schedule: Q01DX009 (ip), vehicle: Klucel (hydroxypropylcellulose) (HPC) 95 % of control | endpoint: mean survival time, dose: 100.0 mg/kg/injection, schedule: Q01DX009 (ip), vehicle: Klucel (hydroxypropylcellulose) (HPC) 95 % of control | [10] 104 % of control | endpoint: mean survival time, dose: 200.0 mg/kg/injection, schedule: Q01DX009 (ip), vehicle: Klucel (hydroxypropylcellulose) (HPC) 95 % of control | [11] 104 % of control | [12] 104 % of control

COc1ccc2[nH]c3cc(Cl)ccc3c(=O)c2c1
inactive: [7] 87 % of control | [9] 90 % of control

Nc1c(C(=O)O)ncn1C1OC(CO)C(O)C1O (stereo not given)
inactive: endpoint: median survival time, dose: 7.88 mg/kg/injection, schedule: Q01DX005 (ip), vehicle: saline 101 % of control | endpoint: median survival time, dose: 15.75 mg/kg/injection, schedule: Q01DX005 (ip), vehicle: saline 104 % of control | endpoint: median survival time, dose: 31.5 mg/kg/injection, schedule: Q01DX005 (ip), vehicle: saline 104 % of control | endpoint: median survival time, dose: 63.0 mg/kg/injection, schedule: Q01DX005 (ip), vehicle: saline 103 % of control | endpoint: median survival time, dose: 126.0 mg/kg/injection, schedule: Q01DX005 (ip), vehicle: saline 92 % of control

CC(=O)c1cc(-c2ccc(C)cc2)nc2c(C)cc(C)cc12
inactive: [13] 92 % of control | [14] 86 % of control | [15] 92 % of control

N=C(N)c1cccc(NC(=O)CCc2ccccc2)c1
inactive: [7] 97 % of control | [8] 93 % of control | [9] 92 % of control

C1CC2CCCN2C1
inactive: endpoint: mean survival time, dose: 12.5 mg/kg/injection, schedule: Q04DX003 (ip), vehicle: acetone 96 % of control | endpoint: mean survival time, dose: 25.0 mg/kg/injection, schedule: Q04DX003 (ip), vehicle: acetone 102 % of control | endpoint: mean survival time, dose: 50.0 mg/kg/injection, schedule: Q04DX003 (ip), vehicle: acetone 97 % of control

N#CCC(=O)NN=C1CCCCC1
inactive: [16] 102 % of control | [17] 123 % of control | [18] 107 % of control

CC(c1ccccc1)c1ccc(O)cc1 (stereo not given)
inactive: [13] 103 % of control | [14] 93 % of control | [15] 91 % of control

CCN(CC)C(=O)C(C)C1CCC2C3CC=C4CC(OC(=O)c5cc([N+](=O)[O-])cc([N+](=O)[O-])c5)CCC4(C)C3CCC12C (stereo not given)
inactive: [7] 94 % of control | [8] 94 % of control | [9] 98 % of control

Brc1cscc1-c1ccccc1
inactive: [13] 93 % of control | [14] 102 % of control | [15] 98 % of control

O=C([O-])c1ccccc1[I+]c1ccccc1
inactive: [6] 107 % of control | [19] 102 % of control | [13] 103 % of control | endpoint: mean survival time, dose: 200.0 mg/kg/injection, schedule: Q01DX001 (ip), vehicle: Klucel (hydroxypropylcellulose) (HPC) 93 % of control | [20] 94 % of control | [14] 101 % of control | endpoint: mean survival time, dose: 400.0 mg/kg/injection, schedule: Q01DX001 (ip), vehicle: Klucel (hydroxypropylcellulose) (HPC) 111 % of control | endpoint: mean survival time, dose: 400.0 mg/kg/injection, schedule: Q01DX009 (ip), vehicle: saline sonified 102 % of control | [15] 101 % of control

O=C1C=CC(=O)C1=Cc1ccc(O)cc1
inactive: endpoint: mean survival time, dose: 5.0 mg/kg/injection, schedule: Q04DX002 (ip), vehicle: saline with Tween-80 100 % of control | endpoint: mean survival time, dose: 10.0 mg/kg/injection, schedule: Q04DX002 (ip), vehicle: saline with Tween-80 103 % of control

CC(=O)OC1COC(n2cnc3c(N)ncnc32)C(OC(C)=O)C1OC(C)=O (stereo not given)
inactive: [16] 108 % of control | [17] 101 % of control | [18] 90 % of control

NC(N)=NCCCCC(N)C(=O)O (stereo not given)
inactive: endpoint: mean survival time, dose: 100.0 mg/kg/injection, schedule: Q01DX009 (ip), vehicle: acetone 101 % of control | [1] 95 % of control | endpoint: mean survival time, dose: 100.0 mg/kg/injection, schedule: Q04DX003 (ip), vehicle: saline 97 % of control | endpoint: mean survival time, dose: 200.0 mg/kg/injection, schedule: Q01DX009 (ip), vehicle: acetone 96 % of control | [2] 95 % of control | endpoint: mean survival time, dose: 200.0 mg/kg/injection, schedule: Q04DX003 (ip), vehicle: saline 100 % of control | endpoint: mean survival time, dose: 400.0 mg/kg/injection, schedule: Q01DX009 (ip), vehicle: acetone 98 % of control | endpoint: mean survival time, dose: 400.0 mg/kg/injection, schedule: Q01DX009 (ip), vehicle: saline 95 % of control | endpoint: mean survival time, dose: 400.0 mg/kg/injection, schedule: Q04DX003 (ip), vehicle: saline 103 % of control

COc1cc(OC)c(NC(=O)Nc2ccc(Nc3ccccc3)cc2)cc1Cl
inactive: endpoint: mean survival time, dose: 50.0 mg/kg/injection, schedule: Q01DX009 (ip), vehicle: saline with Tween-80 90 % of control | [3] 94 % of control | [4] 90 % of control

COc1ccc(NC(=O)Nc2ccc(F)c(Cl)c2)c(OC)c1
inactive: [3] 97 % of control | [4] 103 % of control | [5] 112 % of control

N#CC1c2ccccc2C=CN1C(=O)OCC(Cl)(Cl)Cl (stereo not given)
inactive: [10] 102 % of control | [11] 102 % of control | [12] 103 % of control

COc1ccc(C2=NNC(=O)CC2)cc1OC
inactive: endpoint: mean survival time, dose: 12.5 mg/kg/injection, schedule: Q04DX003 (ip), vehicle: saline 107 % of control | endpoint: mean survival time, dose: 25.0 mg/kg/injection, schedule: Q04DX003 (ip), vehicle: saline 115 % of control | endpoint: mean survival time, dose: 50.0 mg/kg/injection, schedule: Q04DX003 (ip), vehicle: saline 98 % of control

COc1cccc2c1C(=O)c1c(O)c3c(c(O)c1C2=O)C[C@@](O)(C(O)CO)C[C@@H]3OC1CC(N(Cc2ccccc2)Cc2ccccc2)C(O)C(C)O1 (stereo not given in full)
inactive: endpoint: median survival time, dose: 6.25 mg/kg/injection, schedule: Q01DX009 (ip), vehicle: water 122 % of control

COCCCNCCCN1CC1
inactive: endpoint: mean survival time, dose: 16.62 mg/kg/injection, schedule: Q01DX009 (ip), vehicle: saline 115 % of control | endpoint: mean survival time, dose: 31.25 mg/kg/injection, schedule: Q01DX009 (ip), vehicle: saline 107 % of control | endpoint: mean survival time, dose: 62.5 mg/kg/injection, schedule: Q01DX009 (ip), vehicle: saline 94 % of control

CCCCCCCCCCCCCCCCCCN (tested in a mixture with another compound)
inactive: endpoint: mean survival time, dose: 100.0 mg/kg/injection, schedule: Q04DX002 (ip), vehicle: saline with Tween-80 98 % of control | endpoint: mean survival time, dose: 200.0 mg/kg/injection, schedule: Q04DX002 (ip), vehicle: saline with Tween-80 98 % of control

Cc1ccc(OCCOc2ccc([N+](=O)[O-])cc2)cc1
inactive: endpoint: mean survival time, dose: 200.0 mg/kg/injection, schedule: Q04DX003 (ip), vehicle: other 92 % of control | endpoint: mean survival time, dose: 400.0 mg/kg/injection, schedule: Q04DX003 (ip), vehicle: other 90 % of control

O=C(N/N=C\c1ccc([N+](=O)[O-])cc1)c1ccccc1
inactive: [13] 94 % of control | [14] 94 % of control | [15] 92 % of control

Cn1c(=O)c2[nH]cnc2n(C)c1=O (tested in a mixture with another compound)
inactive: endpoint: mean survival time, dose: 50.0 mg/kg/injection, schedule: Q01DX009 (ip), vehicle: saline sonified 98 % of control | [19] 98 % of control | [20] 98 % of control

O=C(O)c1cc(N2CCCCC2)ccn1
inactive: [16] 94 % of control | [17] 100 % of control
